Laboratory results: patent US12083109B2, “Neurokinin antagonists and uses thereof” (California Institute of Technology, priority 2017, dated 2024)
Entries after “also recorded” stand apart in the source; their conditions may differ.

Target: T1, hM4DREADD in Tac2+ neurons (Homo sapiens, UniProt P08173, A203G/Y113C)
T1 construct: host or cells: Tac2+ neurons of Tac2-Cre mice (dBNSTa, DMH or CeA), transduced in vivo with AAV2-EF1a-DIO-hM4D-mCherry
T1 sequence (P08173 1-479 Y113C/A203G): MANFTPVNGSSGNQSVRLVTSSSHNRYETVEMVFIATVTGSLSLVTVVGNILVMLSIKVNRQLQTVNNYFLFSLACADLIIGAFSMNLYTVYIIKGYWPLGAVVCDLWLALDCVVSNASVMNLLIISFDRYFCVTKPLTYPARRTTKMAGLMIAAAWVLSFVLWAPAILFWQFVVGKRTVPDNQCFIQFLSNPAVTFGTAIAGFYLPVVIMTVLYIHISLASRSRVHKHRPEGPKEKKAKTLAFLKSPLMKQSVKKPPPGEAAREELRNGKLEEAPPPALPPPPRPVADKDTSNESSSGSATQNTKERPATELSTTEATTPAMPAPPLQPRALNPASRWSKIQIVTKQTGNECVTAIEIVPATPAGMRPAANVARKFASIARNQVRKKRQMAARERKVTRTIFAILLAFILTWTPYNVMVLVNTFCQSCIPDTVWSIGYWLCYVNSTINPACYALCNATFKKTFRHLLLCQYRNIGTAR
Assay: Shock reactivity, CNO silencing of Tac2+ neurons (hM4DREADD)
Type: in vivo, mouse
Conditions: hM4DREADD in CeA
Protocol: The protocol for tone trace fear conditioning was performed as previously described (Cushman et al., 2014; incorporated by reference in its entirety) using fear conditioning boxes previously described in detail (Haubensak et al., 2010; Kunwar et al., 2015; incorporated by reference in their entirety). Briefly, mice were transported in squads of four on a white cart to a novel behavioral testing room containing 4 sound-attenuating fear-conditioning chambers (Med Associates). This “training context” was comprised of flat grid flooring (wired to a shock generator and scrambler for footshock delivery, Med Associates), houselights, and the presence of an internal fan for background noise. Chambers were sprayed with 70% Simple Green solution on the underlying chamber pan to generate a unique contextual scent and chambers were cleaned with 70% EtOH between squads. […] Freezing behavior during the baseline period as well as during each tone presentation (“during”) and trace interval (“post”) were assessed as previously described (Zelikowsky et al., 2014; incorporated by reference in its entirety) using automated near-infrared video tracking equipment and computer software (VideoFreeze, Med Associates). Shock reactivity (motion, arbitrary units) was measured during the 2 second shock US as well as the 3 seconds immediately following. […]

`C[N+]1([O-])CCN(C2=Nc3cc(Cl)ccc3Nc3ccccc32)CC1` [CNO, clozapine-N-oxide] was tested, and the SIS-enhanced shock reactivity was “suppressed; also recorded: attenuated”.
